# From EP4714947A1, “CRYSTAL FORM OF PYRIMIDO AZACYCLO COMPOUND, AND PREPARATION METHOD THEREFOR AND USE THEREOF” (TYK Medicines, Inc., priority 2023, dated 2024)
# Where two headings read alike, the source gives them in different places.
# Tests used:
# [1] = Rough solubility in 17 solvents by visual inspection at room temperature; conditions: for solubility: DMSO
# physchem [2] = experiment: physchem
# [3] = Pharmacokinetics in rats after a single dose by gavage; conditions: for AUC0-last / AUCINF / Cmax / T1/2 / Tmax: SD rats, single gavage dose 10mpk, 1mg/ml in 0.5% MC+1% tween 80 (Uniform suspension), 10 mg/kg; for in vivo exposure levels: rat pharmacokinetic data, compared with free base crystal form I
# Protocol: (§1) Blood samples were collected at different time points to determine the drug concentration in the rat plasma after administration of the test substance and relevant pharmacokinetic parameters were calculated.
# (§2) The specific preparation method was as follows: 10mg of the test sample was taken, 0.5% MC and 1% Tween 80 was added, the resulting mixture was vortex mixed to obtain a solution with a concentration of 1mg/mL. The solution was freshly prepared before use, mixed well through vortex, and set aside for later use.
# (§3) Healthy male SD rats or dogs were used for this study. All animals were fasted before administration and resumed feeding 4 hours after administration.
# (§4) About 0.1 mL of blood was collected via the jugular vein from each animal, using EDTA or heparin sodium as anticoagulants. After collected, the blood sample was placed on ice and centrifuged to separate the plasma (centrifugation conditions: 10000 rpm, 5 minutes, and 4 °C).
# (§5) The plasma samples were analyzed by LC-MS/MS by the analysis department of the experimental institution.
# [4] = Pharmacokinetics in dogs after a single dose by gavage; conditions: for AUC0-last / AUCINF / Cmax / T1/2 / Tmax: dogs, single gavage dose 5mpk, 1mg/ml in 0.5%MC+1% tween 80 (Uniform suspension), 5 mg/kg; for in vivo exposure levels: dog pharmacokinetic data, compared with free base crystal form I
# Protocol: (§6) Blood samples were collected at different time points to determine the drug concentration in the dog plasma after administration of the test substance and relevant pharmacokinetic parameters were calculated.
# as §2, §3
# (§7) (Time points ≤ 2 hours: ± 2 min; other points: ± 15 min.)
# as §4, §5
# [5] = Solid-state stability, 7 days at 60 °C/closed and 40 °C/75% RH (HPLC purity, XRPD); type: physicochemical; conditions: for Purity (Area%) 40 °C/ 75%RH / Purity (Area%) 60 °C/ Closed / XRPD 40 °C/ 75%RH / XRPD 60 °C/ Closed: 7 days; for Purity (Area%) 40 °C/ 75%RH / Purity (Area%) 60 °C/ Closed / Initial purity (Area%): HPLC; for Initial purity (Area%): before storage; for XRPD 40 °C/ 75%RH: crystal form after 40 °C/75% RH; for XRPD 60 °C/ Closed: crystal form after 60 °C/closed
# Protocol: HPLC analysis was performed using Agilent HPLC 1260 series instruments. Table 37 HPLC Method for Solubility and Stability Tests
# physchem [6] = experiment: physchem; remark: listed apart in the source
# [7] = Solubility test in biological media and water at 37 °C (HPLC; XRPD of residue); conditions: for Solubility (µg/mL) 2 h / Solubility (µg/mL) 0.5 h / Solubility (µg/mL) 24 h: calculated using free base; for Solubility (µg/mL) 2 h: 120 min; for Solubility (µg/mL) 24 h: 1440 min
# in vivo [8] = conditions: dog, po, 5 mg/kg
# Protocol: as §6, §2, §3, §7, §4, §5
# in vivo [9] = conditions: rat, po, 10 mg/kg
# Protocol: as §1, §2, §3, §4, §5
# [10] = system: tumor patients with RET fusion and mutation; conditions: cited from earlier work
# [11] = Evaluation of amorphous free base: suspension stirred in solvent at room temperature for 2 days; type: physicochemical; conditions: for Result (solid form obtained): suspension stirred at room temperature for 2 days
# Protocol: 100 mg of the amorphous free base sample obtained in the present invention was weighed and a solvent was added to form a suspension. The mixture was stirred at room temperature for 2 days, and the results are as follows: […]
# [12] = FaSSIF (pH=6.49), LOQ: ~1.0 µg/mL
# [13] = crystal form after 24 h in FaSSIF (pH=6.49)
# [14] = crystal form after 24 h in FeSSIF (pH=5.00)
# [15] = crystal form after 24 h in SGF (pH=1.19)
# [16] = crystal form after 24 h in Water (pH=5.45)
Structure (SMILES),AUC0-last [3],AUCINF [3],Cmax [3],T1/2 [3],Tmax [3],AUC0-last [4],AUCINF [4],Cmax [4],T1/2 [4],Tmax [4],Purity (Area%) 40 °C/ 75%RH [5],Purity (Area%) 60 °C/ Closed [5],Initial purity (Area%) [5],XRPD 40 °C/ 75%RH [5],XRPD 60 °C/ Closed [5],"Solubility (µg/mL) 2 h [7, 12]","XRPD (24 h) [7, 13]","XRPD (24 h) [7, 14]",in vivo exposure levels [3],in vivo exposure levels [4],other results
CCn1ncc2c(Nc3cc(C)[nH]n3)nc([C@H]3CC[C@](OC)(C(=O)N[C@@H](C)c4cnc(-n5cc(F)cn5)cn4)CC3)nc21 [Free base crystal form I],1172.00 ng·h/mL,1197.00 ng·h/mL,158.00 ng/mL,2.69 h,4.67 h,673.5 ng·h/mL,684.0 ng·h/mL,111.7 ng/mL,2.835 h,3.0 h,,,,,,,,,,,solubility [1]: > 40000 µg/mL; solubility ([1]; listed as free base crystal form I): >166700 µg/mL; Solubility (mg/mL) ([1]; THF): 41.7~50.0 mg/mL; solubility (physchem [2]; 2-me-thf): 11100 to 12500 µg/mL; solubility (physchem [2]; acetone): 7100 to 8300 µg/mL; solubility (physchem [2]; dcm): 4600 to 5000 µg/mL; solubility (physchem [2]; ea): 2200 to 2300 µg/mL; solubility (physchem [2]; etoh): < 600 µg/mL; solubility (physchem [2]; hept): < 600 µg/mL; solubility (physchem [2]; ipa): < 600 µg/mL; solubility (physchem [2]; ipac): 1500 to 1600 µg/mL; solubility (physchem [2]; mek): 6300 to 7100 µg/mL; solubility (physchem [2]; meoh): ~1200 µg/mL; solubility (physchem [2]; mtbe): < 600 µg/mL; solubility (physchem [2]; n-buoh): < 600 µg/mL; solubility (physchem [2]; thf): > 40000 µg/mL; solubility (physchem [2]; tol): < 600 µg/mL; solubility (physchem [2]; water): < 600 µg/mL
CCn1ncc2c(Nc3cc(C)[nH]n3)nc([C@H]3CC[C@](OC)(C(=O)N[C@@H](C)c4cnc(-n5cc(F)cn5)cn4)CC3)nc21 [Fumarate crystal form I],1781.00 ng·h/mL,1790.00 ng·h/mL,247.00 ng/mL,2.77 h,5.00 h,3807.0 ng·h/mL,4179.0 ng·h/mL,617 ng/mL,6.87 h,4.0 h,97.914 Area%,98.119 Area%,98.062 Area%,Unchanged,Unchanged,5.950 µg/mL,Almost amorphous,Unchanged,higher than those of free base crystal form I,higher than those of free base crystal form I,"solubility at 24 h (physchem [6]; fassif, pH 6.49): 22.7 µg/mL; solubility at 0.5 h (physchem [6]; fessif, pH 5): 84.2 µg/mL; solubility at 2 h (physchem [6]; fessif, pH 5): 28.5 µg/mL; solubility at 24 h (physchem [6]; fessif, pH 5): 20.9 µg/mL; solubility at 0.5 h (physchem [6]; sgf): 210 µg/mL; solubility at 0.5 h (physchem [6]; sgf, pH 1.19): 210 µg/mL; solubility at 2 h (physchem [6]; sgf, pH 1.19): 204 µg/mL; solubility at 24 h (physchem [6]; sgf, pH 1.19): 78.1 µg/mL; XRPD (24 h) [7, 15]: Unchanged; XRPD (24 h) [7, 16]: Unchanged"
CO[C@]1(C(=O)N[C@@H](C)c2ccc(-n3cc(F)cn3)nc2)CC[C@H](c2nc(C)cc(Nc3cc(C)[nH]n3)n2)CC1 [BLU-667],,,,,,,,,,,,,,,,,,,,,ORR ([10]; patients with medullary thyroid carcinoma): 40%; ORR ([10]; patients with non-small cell lung cancer): 50%; overall remission rate (ORR) ([10]; tumor patients with RET fusion and mutation): 45%
CCn1ncc2c(Nc3cc(C)[nH]n3)nc([C@H]3CC[C@](OC)(C(=O)N[C@@H](C)c4cnc(-n5cc(F)cn5)cn4)CC3)nc21 [amorphous free base],,,,,,,,,,,,,,,,,,,,,"Result (solid form obtained) ([11]; Acetone): Free base crystal form III; Result (solid form obtained) ([11]; Methanol): Free base crystal form I; stability of the solid form in the solvent ([11]; suspension in methanol or acetone, room temperature, 2 days): unstable and easily transformed into other crystal forms"

# More lines, main results first:
AUC0-last [3],AUCINF [3],Cmax [3],T1/2 [3],Tmax [3],AUC0-last [4],AUCINF [4],Cmax [4],T1/2 [4],Tmax [4],Purity (Area%) 40 °C/ 75%RH [5],Purity (Area%) 60 °C/ Closed [5],Initial purity (Area%) [5],XRPD 40 °C/ 75%RH [5],XRPD 60 °C/ Closed [5],"Solubility (µg/mL) 2 h [7, 12]","XRPD (24 h) [7, 13]","XRPD (24 h) [7, 14]",Structure (SMILES),in vivo exposure levels [3],in vivo exposure levels [4],other results
,,,,,763.5 ng·h/mL,776.0 ng·h/mL,151.5 ng/mL,4.275 h,,99.253 Area%,99.212 Area%,99.316 Area%,Unchanged,Unchanged,,,,CCn1ncc2c(Nc3cc(C)[nH]n3)nc([C@H]3CC[C@](OC)(C(=O)N[C@@H](C)c4cnc(-n5cc(F)cn5)cn4)CC3)nc21 [Free base crystal form III],higher than those of free base crystal form I,higher than those of free base crystal form I,Tmax (in vivo [8]): 2 h; AUC(0-inf) (in vivo [9]): 1260 ng·h/mL; AUC(0-t) (in vivo [9]): 1250 ng·h/mL; Cmax (in vivo [9]): 153 ng/mL; Tmax (in vivo [9]): 6 h; half-life (in vivo [9]): 3.18 h
1209.00 ng·h/mL,1217.00 ng·h/mL,177.00 ng/mL,2.31 h,3.00 h,,,,,,98.742 Area%,98.753 Area%,98.772 Area%,Unchanged,Unchanged,2.650 µg/mL,Changed,Almost amorphous,CCn1ncc2c(Nc3cc(C)[nH]n3)nc([C@H]3CC[C@](OC)(C(=O)N[C@@H](C)c4cnc(-n5cc(F)cn5)cn4)CC3)nc21 [Malate crystal form I],higher than those of free base crystal form I,higher than those of free base crystal form I,"Solubility (µg/mL) 0.5 h ([7]; FeSSIF (pH=5.00), 30 min): 58.771 µg/mL; Solubility (µg/mL) 2 h ([7]; FeSSIF (pH=5.00)): 19.818 µg/mL; Solubility (µg/mL) 24 h ([7]; FeSSIF (pH=5.00)): 16.658 µg/mL; Solubility (µg/mL) 0.5 h ([7]; SGF (pH=1.19), 30 min): 204.753 µg/mL; Solubility (µg/mL) 2 h ([7]; SGF (pH=1.19)): 113.155 µg/mL; Solubility (µg/mL) 24 h ([7]; SGF (pH=1.19)): 79.977 µg/mL; maximum solubility ([7]; SGF medium at 0.5 hours, 30 min): 200 µg/mL; XRPD (24 h) [7, 15]: Changed; XRPD (24 h) [7, 16]: Unchanged"
